This note sets out measurements from patent publication US7635686B2, “Therapeutically useful triethyleneglycol cholesteryl oligonucleotides” (Bioniche Life Sciences, Inc., priority 2001, dated 2009).

For series [1], the system named is Hs578T cells. Nature of the series: Release of nuclear mitotic apparatus protein (NuMA) by Hs578T cells (ELISA). The series is classed as cell-based, human. The note with it: Hs578T monolayer, 53 μM, 72 hrs; percentage increase. The protocol:
Hs578T cells were cultured as monolayer in negative control conditions or with 53 μM final concentraition of SEQ ID NO:2, 53 μM of SEQ ID NO:6 for 72 hrs. The release of nuclear mitotic apparatus protein (NuMA) was used as a measure of apoptosis. NuMA was determined using a commercial ELISA kit following the manufacturer's protocol. Results are shown in Table 11 and are expressed as the percentage increase in NuMA release compared to control conditions based on optical density measurements.
A general note: An ELISA detects its analyte on a solid surface through an enzyme-linked reagent.

The subject of series [2] is MEG-01 cells. Nature of the series: Cell cycle stage in MEG-01 cells (propidium iodide flow cytometry). The series is classed as cell-based, human. The settings on record: 24 h. Here is the method:
To determine a cell cycle stage, various assays and procedures known to one skilled in the art may be employed. One such procedure uses a CYCLETEST™ PLUS DNA commercial kit (Becton Dickinson, Franklin Lakes, N.J.). Briefly, nuclei from cells are obtained by dissolving the cell membrane in a nonionic detergent, eliminating the cell cytoskeleton and nuclear proteins with trypsin, digesting the cellular RNA with RNase, and stabilizing the nuclear chromatin with spermine. Propidium iodide is added to the cell nuclei and their fluorescence was analyzed in a flow cytometer equipped with electronic doublet discrimination capability (FACSCalibur, Becton Dickinson, Franklin Lakes, N.J.). Accumulation of cells in G0/G1, early S (SE), mid S (SM), late S (SL) or G2/M phases of the cell cycle may be analyzed using MODFIT LT software (Verity Software House Inc., Topsham, Mass.), or other appropriate software.
Exponentially growing MEG-01 cells (2×10^5 cells/ml) were incubated for 24 h with 0 μM (control), 53 μM of SEQ ID NO:2 or 53 μM of SEQ ID NO:6. The cells were collected, centrifuged, and cell cycle stage was determined.
Background: In flow cytometry, cells or beads pass a laser one at a time.

The subject of series [3] is MEG-01 cells. Nature of the series: Apoptosis by phosphatidylserine redistribution (FITC-annexin V flow cytometry) in MEG-01 cells. In kind it is cell-based, human. The settings on record: 48 hours; for Percentage of positive cells for phosphatidylserine (cells in apoptosis) in MEG-01 cells: untreated cells 12%; for Induction of apoptosis in MEG-01 cells (in words): translocation of phosphatidylserine, up to 53.0 μM. Here is the method: Redistribution of plasma membrane phosphatidylserine is a characteristic of cells undergoing apoptosis (Martin et al., J. Exp. Med., 182:1545, 1995). The redistribution of phosphatidylserine in the plasma membrane during apoptosis was measured by flow cytometry using FITC (fluorescein isothiocyanate)-conjugated annexin V (BD Pharmingen, San Diego, Calif.). MEG-01 cells, a human chronic myelogeneous leukemia cell line positive for the Philadelphia chromosome and having a BCR-ABL gene fusion, were incubated at 2.5×10^5 cells/ml for 48 hours with 5.3, 26.5 and 53.0 μM final concentrations of SEQ ID NO:1, SEQ ID NO:2, SEQ ID NO:5, SEQ ID NO:6 and cholesteryl-TEG phosphoramidite molecule. The percentage of cells in apoptosis after exposure to the SEQ ID NOs:1, 2, 5, 6, or cholesteryl-TEG phosphoramidite treatment is reported in Table 2. The percentage of apoptosis in untreated MEG-01 cells was 12%.

For series [4], the system named is HIG-82 cells. Nature of the series: Apoptosis by nuclear DNA fragmentation (TUNEL, flow cytometry) in HIG-82 cells. In kind it is cell-based, rabbit. The note with it: 53 μM; for Percentage of cells containing DNA fragmentation (cells in apoptosis) in HIG-82 cells: 48 hours, TUNEL; for Induction of apoptosis in HIG-82 cells (in words): fragmented nuclear DNA. The protocol: Adherent HIG-82 cells were incubated at 1.0×10^5 cells/ml for 48 hours with 53 μM final concentration of SEQ ID NO:1, SEQ ID NO:2, SEQ ID NO:5 or SEQ ID NO:6. Since phosphatidylserine/annexin V detection of apoptosis was not reliable after adherent cell harvesting techniques, such as trypsinization (van Engeland, Cytometry, 31:1, 1998), apoptosis in HIG-82 cells was evaluated using flow cytometry by the detection of fragmented DNA by terminal deoxynucleotidyl transferase enzyme-mediated bromodeoxyuridine triphosphate-biotin nick end-labeling (TUNEL) using a commercial assay (APO-BRDU™ kit; BD Pharmingen). The percentage of cells containing nuclear DNA fragmentation was determined. After 24 hours, untreated HIG-82 cells were essentially negative for nuclear DNA fragmentation.

In series [5] the test system is HIG-82 cells. Nature of the series: HIG-82 synovial cell proliferation (MTT reduction). In kind it is cell-based, rabbit. The settings on record: 53 μM, 48 hours. Here is the method: Adherent HIG-82 cells, a synovial cell line, were incubated at 10×10^5 cells/ml for 48 hours with 53 μM (final concentration) of SEQ ID NO:2, SEQ ID NO:3, SEQ ID NO:4, SEQ ID NO:6, SEQ ID NO:7, or SEQ ID NO:8. Cellular proliferation was measured using dimethylthiazol-diphenyl-tetrazolium (MTT) reduction (Mosman et al., J. Immunol. Methods 65:55, 1983). MTT was measured at a wavelength of 570 nm using a multiple spectrophotometer reader (ELX800, Bio-TEK, Instruments Inc., Winooski, Vt.). The percentage of inhibition, calculated as […]

A further series deals with MCF-7 cells. Nature of the series: MATRIGEL outgrowth after 1 hr pre-incubation, MCF-7. The note with it: MCF-7, 53 μM pre-incubation 1 hr, 3 days on MATRIGEL, FIG. 1. The series is classed as cell-based, human. Here is the method:
(§1) Various in vitro and in vivo assays may be used to evaluate the influence of the extracellular microenvironment on behavior of normal cells and tumor cells. Such assays may employ MATRIGEL® (Becton Dickinson, Franklin Lakes, N.J.), which is a solubilized basement membrane preparation extracted from the Engelbreth-Holm-Swarm murine sarcoma.
(§2) MCF-7, MDA-MB-231 (MDA-231), Hs578T and Mpanc-96 cells were cultured separately in regular culture medium, trypsinized, and counted. 100×10^3 of MDA-231 cells, 100×10^3 of Hs578T cells, 150×10^3 of MCF-7 cells and 150×10^3 of Mpanc-96 cells were separately pre-incubated for 1 hr at 37° C. in a final concentration of 53 μM of SEQ ID NO:1, 53 μM of SEQ ID NO:5 or RCM, and plated on top of MATRIGEL®-coated plates (MATRIGEL® Basement membrane matrix coated cellware 24-well plate,) for 3 days. Plates were fixed with 10% formalin. Digital photographs of the cells in the 24-well plates were taken using a Nikon Coolpix 990 digital camera (Nikon Corporation, Tokyo, Japan) connected to a Nikon inverted microscope model TMS.

The subject of the next series is Mpanc-96 cells. Nature of the series: MATRIGEL outgrowth after 1 hr pre-incubation, Mpanc-96. In kind it is cell-based, human. The settings on record: Mpanc-96, 53 μM pre-incubation 1 hr, 3 days on MATRIGEL, FIG. 1. The protocol:
as §1, §2

Another series concerns MDA-MB-231 cells. Nature of the series: Release of nuclear mitotic apparatus protein (NuMA) by MDA-MB-231 cells (ELISA). The series is classed as cell-based, human. The settings on record: MDA-MB-231 monolayers, 53 μM, 72 hrs; percentage increase. Here is the method: MDA-MB-231 cells were cultured as monolayers in respective control media, with 53 μM final concentration of SEQ ID NO:1 or 53 μM final concentration of SEQ ID NO:5 for 72 hrs. The release of nuclear mitotic apparatus protein (NuMA) was used as a measure of apoptosis. NuMA was determined using a commercial (ELISA kit (Oncogene, Cambridge, Mass.) following the manufacturer's protocol. Results are shown in Table 10 and are expressed as the percentage increase in NuMA release compared to respective controls based on optical density measurements.

Series [6] has as its system MDA-MB-231 (MDA-231) cells. Nature of the series: MATRIGEL outgrowth after 1 hr pre-incubation, MDA-231. In kind it is cell-based, human. The settings on record: MDA-231, 53 μM pre-incubation 1 hr, 3 days on MATRIGEL, FIG. 1 and FIG. 2. The protocol: as §1, §2
(§3) MDA-MB-231 (MDA-231) and Hs578T were cultured in regular culture medium, trypsinized and counted. 100×10^3 of MDA-MB-231 cells or 100×10^3 of Hs578T cells, were separately pre-incubated for 1 hr at 37° C. in a final concentration of 53 μM of SEQ ID NO:4, 53 μM of SEQ ID NO:8 or RCM and plated on MATRIGEL®-coated plates for 3 days. Plates were fixed with 10% formalin. Digital photographs of the cells in the 24-well plates were taken using a Nikon Coolpix 990 digital camera (Nikon Corporation, Tokyo, Japan) connected to a Nikon inverted microscope model TMS.

Series [7] concerns Hs578T cells. Nature of the series: MATRIGEL outgrowth after 1 hr pre-incubation, Hs578T. In kind it is cell-based, human. The note with it: 53 μM pre-incubation 1 hr, 3 days on MATRIGEL, FIG. 1 and FIG. 2. The protocol:
as §1, §2, §3

In the case of “5′ OH-GGGAGG-OH 3′ (listed as DNA, chemistry not fully specified) [SEQ ID NO:2]”, in the series on Hs578T cells [1], the “NuMA release compared to control (%)” value was “+8%”. For the same substance, the “Induction of cell cycle arrest in MEG-01 cells (in words)” value with MEG-01 cells [2] (53 μM) is “inactive”. Also, in the series with MEG-01 cells [2] (MEG-01, 53 μM, untreated 10.8), the “% of cells in phase SM” value came to 11.6%. Moreover, the “% of cells in phase SL + G2/M” value with MEG-01 cells [2] (MEG-01, 53 μM, untreated 17.8) amounted to 19.8%. Moreover, the “% of cells in phase G0/G1 + SE” value in the series with MEG-01 cells [2] (MEG-01, 53 μM, untreated 71.4) is recorded as 68.6%. For the same substance, the “Percentage of positive cells for phosphatidylserine (cells in apoptosis) in MEG-01 cells” value in the series on MEG-01 cells [3] (5.3 μM), in the series with MEG-01 cells [3] (26.5 μM) and in the series on MEG-01 cells [3] (53.0 μM) was 12% throughout. Moreover, in the series with MEG-01 cells [3], the “Induction of apoptosis in MEG-01 cells (in words)” value was “inactive”. Also, the “Percentage of cells containing DNA fragmentation (cells in apoptosis) in HIG-82 cells” value with HIG-82 cells [4] stood at 1%. Besides, the “Induction of apoptosis in HIG-82 cells (in words)” value with HIG-82 cells [4] is “inactive”. Further, the “Inhibition of proliferation of synovial HIG-82 cells (in words)” value with HIG-82 cells [5] is on record as “did not inhibit proliferation”. The “Inhibition of HIG-82 cell proliferation, inhibition (%)” value in the series with HIG-82 cells [5] (MTT) was found to be 6%.
In the case of 5′ OH-GGGTGG-OH 3′ [SEQ ID NO:1], the “Formation of 3-dimensional structures / cell morphology on MATRIGEL” value (in the series on MCF-7 cells; in the series on Mpanc-96 cells; in [6]; with Hs578T cells [7]) was “did not change cell morphology” throughout. For the same substance, the “NuMA release compared to controls (%)” value in the series with MDA-MB-231 cells is “+5%”. The “Percentage of positive cells for phosphatidylserine (cells in apoptosis) in MEG-01 cells” value in the series with MEG-01 cells [3] (5.3 μM), in the series with MEG-01 cells [3] (26.5 μM) and in the series on MEG-01 cells [3] (53.0 μM) was 12% throughout. Moreover, in the series with MEG-01 cells [3], the “Induction of apoptosis in MEG-01 cells (in words)” value is “inactive”. Further, the “Percentage of cells containing DNA fragmentation (cells in apoptosis) in HIG-82 cells” value with HIG-82 cells [4] was 1%. Moreover, the “Induction of apoptosis in HIG-82 cells (in words)” value in the series with HIG-82 cells [4] is “inactive”.
